What was measured:
[1] = target: Human immunodeficiency virus type 1 reverse transcriptase (Human immunodeficiency virus 1, UniProt Q72547); assay: Inhibition of HIV1 reverse transcriptase
[2] = Cytotoxicity against mock-infected human MT4 cells assessed as reduction in cell viability; format: cell-based
[3] = Selectivity index, ratio of CC50 for mock-infected human MT4 cells to EC50 for HIV1 infected in human MT4 cells; format: toxicity, cell-based; conditions: MT4 cells (mock-infected and HIV1-infected), read-out: Ratio CC50/EC50
[4] = tested on: Human immunodeficiency virus 1; assay: Antiviral activity against HIV1 infected in human MT4 cells assessed as reduction in virus-induced cytopathogenicity; format: functional, organism-based; conditions: Human immunodeficiency virus 1, MT4
[5] = tested on: Human immunodeficiency virus; assay: Antiviral activity against HIV by XTT assay; format: functional, organism-based; conditions: Human immunodeficiency virus 1
[6] = tested on: Human immunodeficiency virus 2; assay: Antiviral activity against HIV2 ROD; format: functional, organism-based; conditions: Human immunodeficiency virus 2, ISOLATE ROD

Row | Compound | EC50 [4] [µM] | EC50 [6] [µM] | CC50 [2] [µM] | selectivity ratio [3] | other results
1 | CCC1(CC=C(C)C)Sc2ccccc2-n2cccc2C1=O (stereo not drawn) | 45.2 |  | 0.3 | 9 | IC50 [1]: 1.35 µM
2 | CN1C(=S)c2cn(C)cc2S(=O)(=O)c2cc(Cl)ccc21 | 1.6 |  |  |  | 
3 | CC(C)=CCn1cc2c(c1)S(=O)(=O)c1cc(Cl)ccc1NC2=O |  |  | 68 | 226 | 
4 | CC1(c2ccccc2)Sc2ccccc2-n2cccc2C1=O (stereo not drawn) | 6.9 |  | 10 | 9 | IC50 [1]: 0.35 µM
5 | CCCCCCC(=O)NC1=NN(C)c2ncnc3c2c1cn3[C@@H]1O[C@H](CO)[C@@H](O)[C@H]1O |  |  |  |  | IC50 [5]: 0.035 µM
6 | O=C1Nc2ccc(Cl)cc2S(=O)(=O)n2cccc21 | 1 |  | > 300 | > 300 | IC50 [1]: 0.7 µM
7 | CCCCCCCCCC(=O)NC1=NN(C)c2ncnc3c2c1cn3[C@@H]1O[C@H](CO)[C@@H](O)[C@H]1O |  |  |  |  | IC50 [5]: > 100 µM
8 | CCCCC(=O)NC1=NN(C)c2ncnc3c2c1cn3[C@@H]1O[C@H](CO)[C@@H](O)[C@H]1O |  |  |  |  | IC50 [5]: 0.8 µM
9 | Cc1cccc(Sc2c(C(C)C)c(CO)cn2Cc2ccncc2)c1 | 0.008 |  | 50 | 3250 | 
10 | CC(C)c1c(COC(N)=O)cn(Cc2ccncc2)c1Sc1cc(F)cc(F)c1 | 0.1 |  | > 200 | 2000 | 
11 | O=S1(=O)c2cc(Cl)ccc2NC(=S)c2c[nH]cc21 | 8.1 |  |  |  | 
12 | CC(C)c1c(CO)cn(Cc2ccncc2)c1Sc1cccc(F)c1 | 0.05 |  | 71 | 1420 | 
13 | O=C(NNc1nc2ccccc2n2cccc12)c1cnccn1 |  |  |  |  | IC50 [1]: 19 µM
14 | CC(C)=CCn1cc2c(c1)S(=O)(=O)c1cc(Cl)ccc1NC2=S | 0.7 |  |  |  | 
15 | CC(C)c1c(COC(N)=O)cn(Cc2ccncc2)c1Sc1cc(Cl)cc(Cl)c1 | 0.12 |  | > 200 | > 1670 | 
16 | CCC1(c2ccc3ccccc3c2)Sc2ccccc2-n2cccc2C1=O (stereo not drawn) | 37.3 |  | 0.5 | 9 | IC50 [1]: 0.85 µM
17 | CCCCCC(=O)NC1=NN(C)c2ncnc3c2c1cn3[C@@H]1O[C@H](CO)[C@@H](O)[C@H]1O |  |  |  |  | IC50 [5]: 0.35 µM
18 | Cn1cc2c(c1)S(=O)(=O)c1cc(Cl)ccc1NC2=S | 7.6 |  |  |  | 
19 | CC(C)c1c(COC(N)=O)cn(Cc2ccncc2)c1Sc1cccc(F)c1 | 0.2 |  | > 200 | 1000 | 
20 | Cc1cc(C)cc(Sc2c(C(C)C)c(COC(N)=O)cn2Cc2ccncc2)c1 | 0.15 |  | > 200 | 1330 | 
21 | CC(C)c1c(COC(N)=O)cn(Cc2ccc(N)cc2)c1Sc1cc(Cl)cc(Cl)c1 | 0.1 |  | > 200 | 2000 | 
22 | O=C1Nc2ccc(Cl)cc2S(=O)(=O)c2cn(CC3CC3)cc21 | 2.2 |  |  |  | 
23 | Cc1cccc(Sc2c(C(C)C)c(COC(N)=O)cn2Cc2ccncc2)c1 | 0.12 |  | > 200 | 1670 | 
24 | CC(C)c1c(CO)cn(Cc2ccncc2)c1Sc1cc(Cl)cc(Cl)c1 | 0.03 |  | > 200 | > 6670 | 
25 | C=CCC1(c2ccccc2)Sc2ccccc2-n2cccc2C1=O (stereo not drawn) | 6.4 |  | 25 | 9 | IC50 [1]: 0.71 µM
26 | CCC1(c2ccccc2)Sc2ccccc2-n2cccc2C1=O (stereo not drawn) | 4.9 |  | 0.25 | 9 | IC50 [1]: 0.47 µM
27 | CSCn1cc2c(c1)S(=O)(=O)c1cc(Cl)ccc1NC2=O | 2.2 |  |  |  | 

Second part, led by results:

Row | EC50 [4] [µM] | EC50 [6] [µM] | Compound | CC50 [2] [µM] | selectivity ratio [3] | other results
28 | 4.1 |  | C/C=C/CN1C(=O)c2cccn2S(=O)(=O)c2cc(Cl)ccc21 | > 300 | > 73 | IC50 [1]: 3.1 µM
29 |  | > 150 | N#Cc1cccc(CN2C(=O)N(Cc3cccc(F)c3)S(=O)(=O)n3cccc32)c1 |  |  | 
30 |  | > 150 | O=C1N(Cc2cccc(Cl)c2)c2cccn2S(=O)(=O)N1Cc1ccccc1 |  |  | 
31 |  | > 150 | O=C1N(Cc2ccccc2Br)c2cccn2S(=O)(=O)N1Cc1cccc(Cl)c1 |  |  | 
32 |  | > 150 | N#Cc1cccc(CN2C(=O)N(Cc3cccc(Cl)c3)S(=O)(=O)n3cccc32)c1 |  |  | 
33 | 3.5 |  | O=C1Nc2ccccc2S(=O)(=O)n2cccc21 | > 100 |  | IC50 [1]: 4 µM
34 |  | > 150 | N#CCN1C(=O)N(Cc2ccccc2)S(=O)(=O)n2cccc21 |  |  | 
35 |  | > 150 | O=C1N(Cc2cccc(Cl)c2)c2cccn2S(=O)(=O)N1Cc1cccc(Cl)c1 |  |  | 
36 |  | > 150 | O=C1N(Cc2ccccc2)c2cccn2S(=O)(=O)N1Cc1cccc(Br)c1 |  |  | 
37 | 3.7 |  | C=CCN1C(=O)c2cccn2S(=O)(=O)c2cc(Cl)ccc21 | > 300 | > 81 | IC50 [1]: 2.9 µM
38 |  | > 150 | N#CCN1C(=O)N(Cc2cccc(Cl)c2)S(=O)(=O)n2cccc21 |  |  | 
39 |  | > 150 | N#Cc1ccccc1CN1C(=O)N(Cc2cccc(Br)c2)S(=O)(=O)n2cccc21 |  |  | 
40 |  | > 150 | O=C1N(Cc2ccccc2Cl)c2cccn2S(=O)(=O)N1Cc1ccccc1 |  |  | 
41 |  | > 150 | O=C1N(Cc2ccccc2)c2cccn2S(=O)(=O)N1Cc1ccccc1 |  |  | 
42 | 3.5 |  | C=CCN1C(=O)c2cccn2S(=O)(=O)c2ccccc21 | > 100 |  | IC50 [1]: 4 µM
43 | 3.5 |  | CCN1C(=O)c2cccn2S(=O)(=O)c2ccccc21 | > 100 |  | IC50 [1]: 4 µM
44 |  | > 150 | CC(C)=CCN1C(=O)N(Cc2cccc(Cl)c2)S(=O)(=O)n2cccc21 |  |  | 
45 |  | > 150 | N#CCN1C(=O)N(Cc2cccc(Br)c2)S(=O)(=O)n2cccc21 |  |  | 

Row | EC50 [4] [µM] | EC50 [6] [µM] | Compound | CC50 [2] [µM] | selectivity ratio [3] | other results
46 |  | > 150 | O=C1N(Cc2ccccc2)c2cccn2S(=O)(=O)N1Cc1cccc(F)c1 |  |  | 
47 |  | > 150 | N#Cc1ccccc1CN1C(=O)N(Cc2cccc(Cl)c2)S(=O)(=O)n2cccc21 |  |  | 
48 |  | > 150 | O=C1N(Cc2cccc(Cl)c2)c2cccn2S(=O)(=O)N1Cc1cccc(Br)c1 |  |  | 
49 | 3.5 |  | CN1C(=O)c2cccn2S(=O)(=O)c2ccccc21 | > 100 |  | IC50 [1]: 4 µM
50 | 3.5 |  | CCN1C(=O)c2cccn2S(=O)(=O)c2ccc(Cl)cc21 | > 100 |  | IC50 [1]: 4 µM
51 |  | > 150 | O=C1N(Cc2ccccc2Br)c2cccn2S(=O)(=O)N1Cc1cccc(F)c1 |  |  | 
52 |  | > 150 | O=C1N(Cc2ccccc2)c2cccn2S(=O)(=O)N1Cc1cccc(Cl)c1 |  |  | 
53 |  | > 150 | CC(C)=CCN1C(=O)N(Cc2ccccc2)S(=O)(=O)n2cccc21 |  |  | 
54 | 3.5 |  | CC(C)N1C(=O)c2cccn2S(=O)(=O)c2ccccc21 | > 100 |  | IC50 [1]: 4 µM
55 |  | > 150 | CC(C)=CCN1C(=O)N(Cc2cccc(F)c2)S(=O)(=O)n2cccc21 |  |  | 
56 |  | > 150 | N#CCN1C(=O)N(Cc2cccc(F)c2)S(=O)(=O)n2cccc21 |  |  | 
57 | 0.5 |  | CN1C(=O)c2cccn2S(=O)(=O)c2cc(Cl)ccc21 | > 300 | > 600 | IC50 [1]: 0.5 µM
58 |  | > 150 | N#Cc1cccc(CN2C(=O)N(Cc3cccc(Br)c3)S(=O)(=O)n3cccc32)c1 |  |  | 
59 |  | > 150 | O=C1N(Cc2ccccc2Br)c2cccn2S(=O)(=O)N1Cc1cccc(Br)c1 |  |  | 
60 |  | > 150 | CC(C)=CCN1C(=O)N(Cc2cccc(Br)c2)S(=O)(=O)n2cccc21 |  |  | 
61 | 2.4 |  | CCN1C(=O)c2cccn2S(=O)(=O)c2cc(Cl)ccc21 | > 300 | 118 | IC50 [1]: 2.7 µM
62 |  | > 150 | O=C1N(Cc2ccccc2Br)c2cccn2S(=O)(=O)N1Cc1ccccc1 |  |  | 

From ChEMBL document CHEMBL3608235, “Pyrroloaryls and pyrroloheteroaryls: Inhibitors of the HIV fusion/attachment, reverse transcriptase and integrase” (Bioorg Med Chem, 2015)
